Where “and” joins values, the source holds several entries; their conditions need not be identical. Equal values may be shown once.
Experiments:
Type in all cases: physicochemical
[1] = Solvent solubility assessment with increasing volumes of solvent; set-up: key to Solubility observation: # = clear solution; x = suspension
Method: Example 1 was treated with increasing volumes of solvent (2-propanol (IPA), acetone, methylethyl ketone, ethyl acetate, tetrahydrofuran, acetonitrile, 1,4-dioxane, 90:10 IPA:water, 90:10 THF:water, tert-butylmethyl ether (MTBE), and n-heptane) until the material fully dissolved or until a maximum of 100 vol. had been used. After each addition of solvent, the system was stirred at 25° C. for 10 min before the addition of a new aliquot of solvent. Example 1 was readily soluble in 2-propanol (IPA), acetone, methylethyl ketone, ethyl acetate, tetrahydrofuran, acetonitrile, 1,4-dioxane, 90:10 IPA:water, and 90:10 THF:water, dissolving readily in 10 vol. solvent. MTBE and n-heptane were identified as anti-solvents when Example 1 was not soluble in 100 vol. solvent.
Amorphous Example 1 (10 mg) was treated with increasing volumes of solvent at 25° C. with stirring (Table #). […] For those instances where dissolution was not observed, the samples were placed at 50° C. for 10 minutes. To all samples still in suspension, a further 10 volumes of solvents were added and the sample placed at 25° C. The temperature was then once again increased to 50° C. and maintained until the end of the experiment. Further solvent was added until the material fully dissolved or until a maximum of 70 volumes had been used. Hydrochloric acid was then added (1.1 equivalents) to all samples. A cooling ramp was set to 5° C. at 0.1° C./min and the solutions or oils were stirred at this temperature overnight, yielding oils or solutions.
Crystalline bis tosylate Form 2 (30 mg) was treated with increasing volumes of solvent (n-Heptane, diethyl ether, ethyl acetate, isopropyl acetate, methylisobutyl ketone, 2-propanol, methylethyl ketone, acetone, dimethyl sulfoxide, water, tert-butylmethyl ether, cyclohexane, 1,4-dioxane, toluene, chloroform, 1,2-dimethoxyethane, tetrahydrofuran, N,N-dimethylformamide, acetonitrile, nitromethane, N-methylpyrrolidone, tetrahydrofuran:water 95:5, 2-propanol:water 95:5, or acetone:water 95:5 at 5, 10, 20, 30, 50, 70, or 100 vol total) until the material fully dissolved or until a maximum of 100 vol had been added. After each addition of solvent, the system was shaken gently for 10 minutes at 50° C. and then allowed to stand at ambient conditions for 5 minutes before the addition of a new aliquot of solvent. After the assessment was completed, any suspensions obtained were matured and clear solutions were cooled to 4° C. and held isothermally.

[2] = Solid-state storage stability at elevated temperature and humidity (40° C./75% RH, 25° C./95-97% RH)
[3] = Gravimetric vapour sorption (GVS), hygroscopicity; details: for hygroscopicity: in words
Method: Typically 5-20 mg of sample was placed in a tared mesh stainless steel basket under ambient conditions. The sample was loaded and unloaded at 40% RH and 25° C. (typical room conditions). A moisture sorption isotherm was performed as outlined below (2 scans giving 1 complete cycle). The standard isotherm was performed at 25° C. at 10% RH intervals over a 0-90% RH range. Data analysis was carried out using Microsoft Excel using DVS Analysis Suite v6.2 (or 6.1 or 6.0).
Sorption isotherms were obtained using a SMS DVS Intrinsic moisture sorption analyzer, controlled by DVS Intrinsic Control software v1.0.1.2 (or v 1.0.1.3). The sample temperature was maintained at 25° C. by the instrument controls. The humidity was controlled by mixing streams of dry and wet nitrogen, with a total flow rate of 200 mL/min The relative humidity was measured by a calibrated Rotronic probe (dynamic range of 1.0-100% RH), located near the sample. The weight change, (mass relaxation) of the sample as a function of % RH was constantly monitored by the microbalance (accuracy±0.005 mg).

[4] = Chemical stability of Example 1 free base lots, HPLC purity re-test
Method: Various lots of Example 1 were analyzed by HPLC shortly after synthesis (analysis from 1-24 hours post-synthesis) and re-tested for purity a unit of time later.
Purity analysis was performed on an Agilent HP1100 series system equipped with a diode array detector and using ChemStation software vB.04.03 using one of the methods detailed below: […]

With CN1CCN(C(=O)[C@H](CCCN[C@@H]2C[C@H]2c2ccc(F)cc2)NC(=O)c2ccc(-n3ccnn3)cc2)CC1.Cc1ccc(S(=O)(=O)O)cc1.Cc1ccc(S(=O)(=O)O)cc1 [Example 1 bis tosylate Form 2, N—((S)-5-((1R,2S)-2-(4-fluorophenyl)cyclopropylamino)-1-(4-methylpiperazin-1-yl)-1-oxopentan-2-yl)-4-(1H-1,2,3-triazol-1-yl)benzamide bis-tosylate Form 2] the “solvent volume needed to dissolve” value ([1]; crystalline bis tosylate Form 2, all other solvents tested incl. water, remained a suspension) was greater than 100 vol, the “solvent volume needed to dissolve” value ([1]; crystalline bis tosylate Form 2, dimethylsulfoxide and N,N-dimethylformamide, 50° C. shaking) was 5 vol and the “solvent volume needed to dissolve” value ([1]; crystalline bis tosylate Form 2, tetrahydrofuran:water 95:5) was 10 vol.
For CN1CCN(C(=O)C(CN[C@@H]2C[C@H]2c2ccc(F)cc2)NC(=O)c2ccc(-n3ccnn3)cc2)CC1 (stereo partly drawn) [Example 1, N-[3-[[(1R,2S)-2-(4-Fluorophenyl)cyclopropyl]amino]-1-(4-methylpiperazin-1-yl)-1-oxopropan-2-yl]-4-(1H-1,2,3-triazol-1-yl)benzamide], the “behaviour at high humidity” value ([2]; free base form) was “deliquesces”, the “stability at elevated storage conditions” value ([2]; free base, 25° C./97% RH and 40° C./75% RH) was “deliquesced” and the Solubility observation ([1]; 1-Butanol, 10 vol 25° C.) was “#”. The Solubility observation ([1]; 1-Propanol, 10 vol 25° C.) was “#”, the Solubility observation ([1]; 2-Propanol, 10 vol 25° C.) was “#” and the “solvent volume needed to dissolve” value ([1]; 25° C., IPA, acetone, methylethyl ketone, ethyl acetate, THF, acetonitrile, 1,4-dioxane, 90:10 IPA:water, 90:10 THF:water) was 10 vol. The “solvent volume needed to dissolve” value ([1]; 25° C., MTBE and n-heptane (anti-solvents)) was greater than 100 vol, the Solubility observation ([1]; Acetone, 10 vol 25° C.) was “#” and the Solubility observation ([1]; Acetone:Water (90:10), 10 vol 25° C.) was “#”. For the same molecule, the Solubility observation ([1]; Acetone:Water (95:5), 10 vol 25° C.) was “#”, the Solubility observation ([1]; Acetonitrile, 10 vol 25° C.) was “#” and the Solubility observation ([1]; Anisole, 10 vol 25° C.) was “#”. For the same molecule, the Solubility observation ([1]; Cyclohexane, 10 vol 25° C.) was “oil”, the Solubility observation ([1]; Cyclohexane, 10 vol 50° C.) was “oil” and the Solubility observation ([1]; Cyclohexane, 20 vol 25° C.) was “oil”. The Solubility observation ([1]; Cyclohexane, 20 vol 50° C.) was “oil”, the Solubility observation ([1]; Cyclohexane, 40 vol 50° C.) was “oil” and the Solubility observation ([1]; Cyclohexane, 70 vol 50° C.) was “oil”. For the same molecule, the Solubility observation ([1]; Dichloromethane, 10 vol 25° C.) was “#”, the Solubility observation ([1]; Diethyl ether, 10 vol 25° C.) was “oil” and the Solubility observation ([1]; Diethyl ether, 10 vol 50° C.) was “oil”. For the same molecule, the Solubility observation ([1]; Diethyl ether, 20 vol 25° C.) was “oil”, the Solubility observation ([1]; Diethyl ether, 20 vol 50° C.) was “oil” and the Solubility observation ([1]; Diethyl ether, 40 vol 50° C.) was “oil”. For the same molecule, the Solubility observation ([1]; Diethyl ether, 70 vol 50° C.) was “oil”, the Solubility observation ([1]; Dimethyl sulfoxide, 10 vol 25° C.) was “#” and the Solubility observation ([1]; EtOH:Water (85:15), 10 vol 25° C.) was “#”. For the same molecule, the Solubility observation ([1]; Ethanol, 10 vol 25° C.) was “#”, the Solubility observation ([1]; IPA:Water (85:15), 10 vol 25° C.) was “#” and the Solubility observation ([1]; Isopropyl acetate, 10 vol 25° C.) was “#”. The Solubility observation ([1]; MEK, 10 vol 25° C.) was “#”, the Solubility observation ([1]; MIBK, 10 vol 25° C.) was “#” and the Solubility observation ([1]; MeOH:Water (85:15), 10 vol 25° C.) was “#”. For the same molecule, the Solubility observation ([1]; Methanol, 10 vol 25° C.) was “#”, the Solubility observation ([1]; Methyl acetate, 10 vol 25° C.) was “#” and the Solubility observation ([1]; Propyl acetate, 10 vol 25° C.) was “#”. The Solubility observation ([1]; Toluene, 10 vol 25° C.) was “#”, the Solubility observation ([1]; Water, 10 vol 25° C.) was “x” and the Solubility observation ([1]; Water, 10 vol 50° C.) was “x”. The Solubility observation ([1]; Water, 20 vol 25° C.) was “x”, the Solubility observation ([1]; Water, 20 vol 50° C.) was “oil” and the Solubility observation ([1]; Water, 40 vol 50° C.) was “oil”. The Solubility observation ([1]; Water, 70 vol 50° C.) was “oil”, the “solvent volume needed to dissolve” value ([1]; amorphous free base, most solvents at 25° C.) was 10 volumes and the observation in solvent ([1]; amorphous free base, water, diethyl ether, cyclohexane, up to 70 volumes, 25-50° C.) was “oils eventually formed”. For the same molecule, the hygroscopicity [3] was “hygroscopic”, the “Re-Test Purity” value ([4]; free base Lot 1, 49 days between tests) was 82% and the “Re-Test Purity” value ([4]; free base Lot 2, 16 days between tests) was 72%. For the same molecule, the “stability at ambient conditions” value ([4]; free base form) was “degrades at ambient conditions over time” and the “Initial Purity” value ([4]; free base lots, HPLC 1-24 hours post-synthesis) was 93% and 81%.
In the case of O=C(O)C(O)C(O)C(=O)O (stereo not drawn) [tartrate], the “Storage at 40° C. and 75% RH (form by XRPD)” value ([2]; one week / 7 days) is reported as “no change in form was observed”, the “Storage at both 40° C. and 75% RH and 25° C. and 95% RH (form, purity)” value ([2]; scaled-up salts) is reported as “changes in crystallinity and form” and the GVS water uptake ([3]; 25° C., full cycle 0-90% RH) is reported as roughly 30 % w/w. For the same molecule, the hygroscopicity [3] was “highly hygroscopic”.

From patent US10519118B2, “KDM1A inhibitors for the treatment of disease” (Imago Biosciences, Inc., priority 2015, dated 2019)
